Assay results taken from US9023865B2, “Compounds that are ERK inhibitors” (Merck Sharp & Dohme Corp., priority 2011, dated 2015).
pIC50: −log10 of the molar value.

The compounds below were run against Active Human ERK2 (hERK2) (Homo sapiens (Human), UniProt P28482) (assay: Active Human ERK2 (hERK2) Activity Assay (IMAP-FP)). Settings: phosphorylated active hERK2, 30 μM ATP; average; read-out: ERK 2 Human average IC50.
Active Human ERK2 (hERK2), sequence (P28482 whole entry): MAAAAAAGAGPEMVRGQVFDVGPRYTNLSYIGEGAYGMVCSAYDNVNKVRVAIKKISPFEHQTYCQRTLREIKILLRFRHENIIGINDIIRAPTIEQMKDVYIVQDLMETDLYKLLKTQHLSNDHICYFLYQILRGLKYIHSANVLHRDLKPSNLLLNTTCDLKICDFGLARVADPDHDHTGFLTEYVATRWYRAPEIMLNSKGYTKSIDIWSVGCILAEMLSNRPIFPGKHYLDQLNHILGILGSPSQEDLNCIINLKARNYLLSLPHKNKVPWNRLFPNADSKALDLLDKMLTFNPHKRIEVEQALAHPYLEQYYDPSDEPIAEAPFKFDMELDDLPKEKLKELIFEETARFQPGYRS
Type: biochemical
Method: Assays Active Human ERK2 (hERK2) Activity Assay:
Activated ERK2 activity was determined in an IMAP-FP assay (Molecular Devices). […] The final reaction in each well of 25 μL consists of 0.5 nM hERK2, 900 nM unlabeled peptide, 80 nM labeled-peptide, and 30 μM ATP. Phosphorylation reactions were allowed to proceed for 60 minutes and were immediately quenched by the addition of […] IMAP detection beads (1:1000 dilutions) in IMAP binding buffer (Molecular Devices) with 24 mM NaCl. Plates were read on EnVision reader after 60 minutes binding equilibration using Fluorescence Polarization protocol (Perkin Elmer).
In the case of `Cc1cc(-c2n[nH]c3cc(NC(=O)NC(C)c4cscn4)ncc23)ccn1` (centres unmarked) [Example 496], the pIC50 was 8.85.
For `C[C@@H](NC(=O)Nc1cc2[nH]nc(-c3ccc(C#N)cc3)c2cn1)c1ccc(F)cc1` [Example 83, 1-[3-(4-cyanophenyl)-1H-pyrazolo[4,3-c]pyridin-6-yl]-3-[(1R)-1-(4-fluorophenyl)ethyl]urea], the pIC50 was 8.48.
For `C[C@@H](NC(=O)Nc1cc2[nH]nc(C3=CNCN=C3)c2cn1)c1ccc(F)cc1` [Example 663], the pIC50 was 8.04.
`COCCOC[C@@H](NC(=O)Nc1cc2[nH]nc(-c3cc(C)on3)c2cn1)c1ccccc1` [Example 700] was tested, and the pIC50 was 7.92.
In the case of `Cc1nnc(-c2n[nH]c3cc(NC(=O)N[C@H](C)c4ccccc4)ncc23)o1` [Example 681], the pIC50 was 8.11.
`Cc1ccc(-c2n[nH]c3cc(NC(=O)N[C@H](C)c4ccc(F)cc4)ncc23)s1` [Example 248] gave a pIC50 of 7.93.
In the case of `Cc1cc(-c2n[nH]c3cc(NC(=O)N[C@@H](CO)c4cccc5cc[nH]c45)ncc23)ccn1` [Example 363], the pIC50 was 7.59.
Compound `Cc1cc(-c2n[nH]c3cc(NC(=O)N[C@@H](C)c4ccncc4)ncc23)ccn1` [Example 235] has a pIC50 of 7.66.
For `COC[C@@H](NC(=O)Nc1cc2[nH]nc(-c3ccnc(C)c3)c2cn1)c1ccccc1` [Example 538], the pIC50 was 9.53.
For `COC[C@@H](NC(=O)Nc1cc2[nH]nc(-c3ccnc(C)c3)c2cn1)c1ccccn1` [Example 416], the pIC50 was 9.11.
Work on `Cc1cc(-c2n[nH]c3cc(NC(=O)N[C@@H]4CCN(C)C4)ncc23)ccn1` [Example 596] yielded a pIC50 of 8.31.
`O=C(Nc1cc2[nH]nc(C3CC3)c2cn1)N[C@@H]1CCCOc2ccccc21` [Example 295] showed a pIC50 of 8.57.
With `Cc1cc(-c2n[nH]c3cc(NC(=O)NCC4CCCCC4)ncc23)ccn1` [Example 578] the pIC50 was 9.25.
`Cc1cc(-c2n[nH]c3cc(NC(=O)N[C@@H]4CN(C)C[C@H]4c4ccccc4F)ncc23)ccn1` [Example 184] gave a pIC50 of 9.77.
For `Cc1cc(-c2n[nH]c3cc(NC(=O)NC[C@H](C)c4ccccc4)ncc23)ccn1` [Example 621], the pIC50 was 8.89.
Work on `Cc1cc(-c2n[nH]c3cc(NC(=O)NCC(C)c4ccccc4)ncc23)ccn1` (centres unmarked) [Example 584] yielded a pIC50 of 9.17.
`Cc1cc(-c2n[nH]c3cc(NC(=O)NC[C@@H](C)c4ccccc4)ncc23)ccn1` [Example 622] showed a pIC50 of 9.10.
`Cc1cc(-c2n[nH]c3cc(NC(=O)N[C@H](CO)c4cccc5cc[nH]c45)ncc23)ccn1` [Example 362] showed a pIC50 of 9.54.
With `Cc1cc(-c2n[nH]c3cc(NC(=O)N[C@@H]4CN(C)C[C@H]4c4cccc(Cl)c4)ncc23)ccn1` [Example 581] the pIC50 was 9.63.
`Cc1cc(-c2n[nH]c3cc(NC(=O)NCC4CC4)ncc23)ccn1` [Example 35, 1-(cyclopropylmethyl)-3-[3-(2-methylpyridin-4-yl)-1H-pyrazolo[4,3-c]pyridin-6-yl]urea] showed a pIC50 of 8.68.
For `COc1cncc(-c2n[nH]c3cc(NC(=O)N[C@H](C)c4ccc(F)cc4)ncc23)c1` [Example 253], the pIC50 was 8.50.
For `Cc1cc(-c2n[nH]c3cc(NC(=O)NCC4CCN(Cc5ccccc5)C4)ncc23)ccn1` (centres unmarked) [Example 410], the pIC50 was 8.58.
`CCO[C@@H]1CN(C)C[C@H]1NC(=O)Nc1cc2[nH]nc(-c3ccc(F)cc3)c2cn1` [Example 320] showed a pIC50 of 7.59.
`O=C(NCC1CCOC1)Nc1cc2[nH]nc(-c3ccc(F)cc3)c2cn1` (centres unmarked) [Example 220] was tested, and the pIC50 was 8.61.
`CN1C[C@@H](NC(=O)Nc2cc3[nH]nc(-c4ccc(F)cc4)c3cn2)[C@H](c2ccccc2)C1` [Example 214] was tested, and the pIC50 was 9.40.
`COCCNC(=O)Nc1cc2[nH]nc(-c3ccnc(C4CC4)c3)c2cn1` [Example 629] gave a pIC50 of 8.82.
Work on `Cc1cc(-c2n[nH]c3cc(NC(=O)NCC4(c5ccc(OC(F)(F)F)cc5)CC4)ncc23)ccn1` [Example 268] yielded a pIC50 of 7.04.
`C[C@@H](NC(=O)Nc1cc2[nH]nc(-c3ccc4nnn(C)c4c3)c2cn1)c1ccc(F)cc1` [Example 260] showed a pIC50 of 9.51.
`Cc1cc(-c2n[nH]c3cc(NC(=O)NCCc4cn[nH]c4)ncc23)ccn1` [Example 394] showed a pIC50 of 9.07.
`Cc1cc(-c2n[nH]c3cc(NC(=O)NCc4ccc(F)cc4)ncc23)ccn1` [Example 273] was tested, and the pIC50 was 9.02.
Compound `Cc1cc(-c2n[nH]c3cc(NC(=O)NC4CNc5ccccc5C4)ncc23)ccn1` (centres unmarked) [Example 501] has a pIC50 of 9.02.
Work on `Cc1cc(-c2n[nH]c3cc(NC(=O)NCC(=O)N(C)C)ncc23)ccn1` [Example 187] yielded a pIC50 of 7.28.
Work on `CC(O)c1n[nH]c2cc(NC(=O)N[C@H](C)c3ccccc3)ncc12` (some centres unmarked) [Example 618] yielded a pIC50 of 7.64.
`C[C@@H](NC(=O)Nc1cc2[nH]nc(C3CC3C(=O)O)c2cn1)c1ccccc1` (some centres unmarked) [Example 660] showed a pIC50 of 8.57.
`COCCn1cc(-c2n[nH]c3cc(NC(=O)N[C@H](C)c4ccccc4)ncc23)cn1` [Example 289] was tested, and the pIC50 was 7.55.
For `Cc1cc(-c2n[nH]c3cc(NC(=O)NCC4(O)CC4)ncc23)ccn1` [Example 37], the pIC50 was 8.00.
Work on `CO[C@H](C)CNC(=O)Nc1cc2[nH]nc(-c3ccc(F)cc3)c2cn1` [Example 634] yielded a pIC50 of 8.89.
In the case of `Cc1cc(-c2n[nH]c3cc(NC(=O)NCc4ccc(Cl)cn4)ncc23)ccn1` [Example 478], the pIC50 was 8.22.
In the case of `COc1cc(F)ccc1CNC(=O)Nc1cc2[nH]nc(-c3ccnc(C)c3)c2cn1` [Example 520], the pIC50 was 9.36.
`Cc1cc(-c2n[nH]c3cc(NC(=O)NCc4csc5ccc(Cl)cc45)ncc23)ccn1` [Example 488] gave a pIC50 of 8.23.
For `Cc1cc(-c2n[nH]c3cc(NC(=O)N[C@H](C)c4ncccc4F)ncc23)ccn1` [Example 232], the pIC50 was 9.16.
`Cc1cc(-c2n[nH]c3cc(NC(=O)NC4CCCOc5ccccc54)ncc23)no1` (centres unmarked) [Example 689] gave a pIC50 of 8.29.
In the case of `CN1CC[C@@H](CNC(=O)Nc2cc3[nH]nc(-c4ccc(F)cc4)c3cn2)C1` [Example 321], the pIC50 was 9.01.
In the case of `COC[C@@H](NC(=O)Nc1cc2[nH]nc(-c3ccc(C#N)nc3)c2cn1)c1ccc(F)cc1` [Example 303], the pIC50 was 8.49.
For `C[C@@H](NC(=O)Nc1cc2[nH]nc(-c3ccc(C#N)cc3)c2cn1)c1cccc(Cl)c1` [Example 84, 1-[(1R)-1-(3-chlorophenyl)ethyl]-3-[3-(4-cyanophenyl)-1H-pyrazolo[4,3-c]pyridin-6-yl]urea], the pIC50 was 8.21.
`Cc1cc(-c2n[nH]c3cc(NC(=O)NCCOc4ccccc4)ncc23)ccn1` [Example 453] was tested, and the pIC50 was 8.79.
Compound `Cc1cc(-c2n[nH]c3cc(NC(=O)NCC4CCCCO4)ncc23)ccn1` (centres unmarked) [Example 469] has a pIC50 of 8.92.
In the case of `Cc1cc(-c2n[nH]c3cc(NC(=O)NCc4scnc4C)ncc23)ccn1` [Example 418], the pIC50 was 8.56.
In the case of `Cc1cc(-c2n[nH]c3cc(NC(=O)NCc4c(F)cccc4F)ncc23)ccn1` [Example 52, 1-(2,6-difluorobenzyl)-3-[3-(2-methylpyridin-4-yl)-1H-pyrazolo[4,3-c]pyridin-6-yl]urea], the pIC50 was 9.18.
With `C[C@@H](NC(=O)Nc1cc2[nH]nc(-c3ccnc(F)c3)c2cn1)C1CCCCC1` [Example 593] the pIC50 was 8.48.
Work on `Cc1cc(-c2n[nH]c3cc(NC(=O)N[C@@H]4CCc5ccc(F)cc54)ncc23)ccn1` [Example 270] yielded a pIC50 of 8.43.
Compound `Cc1cc(-c2n[nH]c3cc(NC(=O)NC4CCOc5cc(F)ccc54)ncc23)ccn1` (centres unmarked) [Example 286] has a pIC50 of 8.02.
`Cc1cc(-c2n[nH]c3c(Br)c(NC(=O)N[C@H](C)c4ccccc4)ncc23)ccn1` [Example 79, 1-[7-bromo-3-(2-methylpyridin-4-yl)-1H-pyrazolo[4,3-c]pyridin-6-yl]-3-[(1R)-1-phenylethyl]urea] showed a pIC50 of 7.46.
`C[C@@H](NC(=O)Nc1cc2[nH]nc(C(=O)NCC3CCN(C4CC4)C3)c2cn1)c1ccccc1` (some centres unmarked) [Example 129] was tested, and the pIC50 was 7.87.
`Cc1cc(-c2n[nH]c3cc(NC(=O)NC4(c5ccccc5)CC4)ncc23)ccn1` [Example 350] gave a pIC50 of 7.98.
`Cc1cc(-c2n[nH]c3cc(NC(=O)NCc4ccccc4Cl)ncc23)ccn1` [Example 439] gave a pIC50 of 8.89.
`Cc1cc(-c2n[nH]c3cc(NC(=O)N[C@H]4CCN(CC(F)(F)F)C4)ncc23)ccn1` [Example 327] showed a pIC50 of 9.35.
For `C[C@@H](NC(=O)Nc1cc2[nH]nc(C(=O)N(C)C)c2cn1)c1ccccc1` [Example 139], the pIC50 was 6.24.
`Cc1cc(-c2n[nH]c3cc(NC(=O)NCC4COc5ccccc5O4)ncc23)ccn1` (centres unmarked) [Example 459] showed a pIC50 of 8.56.
With `COc1ncc(-c2n[nH]c3cc(NC(=O)N[C@H](C)c4ccc(F)cc4)ncc23)cn1` [Example 252] the pIC50 was 9.13.
`COC[C@@H](NC(=O)Nc1cc2[nH]nc(-c3ccnc(N4CCNCC4)c3)c2cn1)c1ccc(F)cc1` [Example 306] gave a pIC50 of 9.09.
In the case of `C[C@@H](NC(=O)Nc1cc2[nH]nc(-c3ccc4nncn4c3)c2cn1)c1ccc(F)cc1` [Example 246], the pIC50 was 9.24.
For `Cc1cc(-c2n[nH]c3cc(NC(=O)NCC(c4ccccc4)N4CCCCC4)ncc23)ccn1` (centres unmarked) [Example 386], the pIC50 was 8.31.
With `Cc1cc(-c2n[nH]c3c(F)c(NC(=O)N[C@H](C)c4ccccc4)ncc23)ccn1` [Example 95, 1-[7-fluoro-3-(2-methylpyridin-4-yl)-1H-pyrazolo[4,3-c]pyridin-6-yl]-3-[(1R)-1-phenylethyl]urea] the pIC50 was 9.63.
`C[C@@H](NC(=O)Nc1cc2[nH]nc(-c3ccc(F)cc3)c2cn1)c1ccccc1` [Example 30, 1-[3-(4-fluorophenyl)-1H-pyrazolo[4,3-c]pyridin-6-yl]-3-[(1R)-1-phenylethyl]urea] showed a pIC50 of 9.07.
`Cc1cc(-c2n[nH]c3cc(NC(=O)NCC4(C)CCCO4)ncc23)ccn1` (centres unmarked) [Example 463] was tested, and the pIC50 was 8.80.
`C[C@@H](NC(=O)Nc1cc2[nH]nc(-c3cn[nH]c3)c2cn1)c1ccc(F)c(Cl)c1` [Example 74, 1-[(1R)-1-(3-chloro-4-fluorophenyl)ethyl]-3-[3-(1H-pyrazol-4-yl)-1H-pyrazolo[4,3-c]pyridin-6-yl]urea] was tested, and the pIC50 was 9.22.

Same assay, conditions: read-out: AERK2 IC50 (Active human ERK2 Activity Assay)
With `Cc1cc(-c2n[nH]c3cc(NC(=O)NCc4c(F)cccc4F)ncc23)ccn1` [Example 52, 1-(2,6-difluorobenzyl)-3-[3-(2-methylpyridin-4-yl)-1H-pyrazolo[4,3-c]pyridin-6-yl]urea] the pIC50 was 8.77 to 9.70.
`Cc1cc(-c2n[nH]c3c(F)c(NC(=O)N[C@H](C)c4ccccc4)ncc23)ccn1` [Example 95, 1-[7-fluoro-3-(2-methylpyridin-4-yl)-1H-pyrazolo[4,3-c]pyridin-6-yl]-3-[(1R)-1-phenylethyl]urea] was tested, and the pIC50 was 8.77 to 9.70.
With `C[C@@H](NC(=O)Nc1cc2[nH]nc(-c3ccc(F)cc3)c2cn1)c1ccccc1` [Example 30, 1-[3-(4-fluorophenyl)-1H-pyrazolo[4,3-c]pyridin-6-yl]-3-[(1R)-1-phenylethyl]urea] the pIC50 was 8.77 to 9.70.
With `C[C@@H](NC(=O)Nc1cc2[nH]nc(-c3cn[nH]c3)c2cn1)c1ccc(F)c(Cl)c1` [Example 74, 1-[(1R)-1-(3-chloro-4-fluorophenyl)ethyl]-3-[3-(1H-pyrazol-4-yl)-1H-pyrazolo[4,3-c]pyridin-6-yl]urea] the pIC50 was 8.77 to 9.70.
